pIC50: −log10 of the molar value.
System: HCT116 colorectal cells
Assay: Cell viability assay (CellTiter-Glo) in HCT116 cells
Format: cell-based
Details: Homo sapiens, HCT-116, 72h, CellTiter-Glo, read-out: HCT116 Assay (IC50)
Description: HCT116 colorectal cells were used in these experiments. HCT116 cells were obtained from ATCC. The CellTiter-Glo® Luminescent Cell Viability Assay Reagent was obtained from Promega.
Into a 96-well plate, 3000 HCT116 cells were seeded with 100 μL of media (McCoy's 5A Medium supplemented with 10% FBS, 100 units penicillin, and 100 μg streptomycin per mL) 24h before the experiment. For compound treatment, the liquid handling system-Pico machine was used to prepare all the compounds. Each master plate contained serial dilution of 2 compounds, including the control compound E7820. 10 mM compound stock was added to each well of the assay plate to give final concentrations of […], 0.003, 0.002 and 0 μM. Each concentration was tested in triplicate. After 72h, cell viability was determined using CellTiter-Glo Luminescent Cell Viability Assay Reagent following the manufacturer's recommended protocol. Briefly, equilibrate the assay plate and its contents at room temperature for approximately 30 minutes. 100 μL of CellTiter-Glo reagent was added to each well of the assay plate and the contents were mixed for 2 minutes at 500 rpm on an orbital shaker to induce cell lysis (Fisherbrand). The plate was incubated at room temperature for 10 minutes to stabilize luminescent signal. Then the plate was immediately placed in a plate reader (PerkinElmer Multimode Plate Reader Envision2105) and the luminescence signal (0.5 second per well integration time) was determined. IC50 values were calculated using Graphpad Prism 9 software.
Cell viability assays were performed to compare the potency of Compound 1 to Compound 143.

| SMILES | pIC50 |
| --- | --- |
| Cc1ncc(CS(=O)(=O)Nc2ccc(C)c3c(C#N)c[nH]c23)s1 [Compound 8, N-(3-cyano-4-methyl-1H-indol-7-yl)-1-(2-methylthiazol-5-yl)methanesulfonamide] | < 6.00 |
| Cc1ncc(S(=O)(=O)N(C)c2ccc(C)c3c(C#N)c[nH]c23)s1 [Compound 30, N-(3-cyano-4-methyl-1H-indol-7-yl)-N,2-dimethyl-thiazole-5-sulfonamide] | < 6.00 |
| Cc1ccc(NS(=O)(=O)c2ccc3nc(C#N)cn3c2)c2[nH]cc(C#N)c12 [Compound 42] | < 6.00 |
| Cc1ccc(NS(=O)(=O)c2cnc(C3CCNCC3)s2)c2[nH]cc(C#N)c12 [Compound 26, N-(3-cyano-4-methyl-1H-indol-7-yl)-2-(4-piperidyl)thiazole-5-sulfonamide] | < 6.00 |
| CN1CCCC(c2ncc(S(=O)(=O)Nc3ccc(Cl)c4cc[nH]c34)s2)C1 (stereo not shown) [Compound 16, N-(4-chloro-1H-indol-7-yl)-2-(1-methylpiperidin-3-yl)thiazole-5-sulfonamide] | < 6.00 |
| Cc1ccc(NS(=O)(=O)c2cnc(C3CCN(C)CC3)s2)c2[nH]cc(C#N)c12 [Compound 12, N-(3-cyano-4-methyl-1H-indol-7-yl)-2-(1-methyl-4-piperidyl)thiazole-5-sulfonamide] | < 6.00 |
| C#Cc1c[nH]c2c(NS(=O)(=O)c3cnc(C)s3)ccc(C)c12 [Compound 104] | < 6.00 |
| Cc1ccc(NS(=O)(=O)c2cnc(C3CCCN(C)C3)s2)c2[nH]cc(C#N)c12 (stereo not shown) [Compound 28, N-(3-cyano-4-methyl-1H-indol-7-yl)-2-(1-methylpiperidin-3-yl)thiazole-5-sulfonamide] | < 6.00 |
| Cc1ccc(NS(=O)(=O)c2ccn3cc(C#N)nc3c2)c2[nH]cc(C#N)c12 [Compound 40] | 6.00 to 6.30 |
| Cc1ncc(S(=O)(=O)Nc2ccc(C)c3c(C(F)F)c[nH]c23)s1 [Compound 5, N-(3-(difluoromethyl)-4-methyl-1H-indol-7-yl)-2-methylthiazole-5-sulfonamide] | 6.00 to 6.30 |
| Cc1ncc(S(=N)(=O)Nc2ccc(C)c3c(C#N)c[nH]c23)s1 (stereo not shown) [Compound 33, 4-methyl-7-[[(2-methylthiazol-5-yl)sulfonimidoyl]amino]-1H-indole-3-carbonitrile] | < 6.00 |
| Cc1nc(C)c(S(=O)(=O)Nc2ccc(C)c3c(C#N)c[nH]c23)s1 [Compound 21, N-(3-cyano-4-methyl-1H-indol-7-yl)-2,4-dimethylthiazole-5-sulfonamide] | 6.00 to 6.30 |
| O=S(=O)(Nc1cccc2c(Cl)c[nH]c12)c1cnc(C(F)F)s1 [Compound 13, N-(3-chloro-1H-indol-7-yl)-2-(difluoromethyl)thiazole-5-sulfonamide] | 6.00 to 6.30 |
| Cc1ccc(NS(=O)(=O)c2cnc(C(F)(F)F)s2)c2[nH]cc(C#N)c12 [Compound 10, N-(3-cyano-4-methyl-1H-indol-7-yl)-2-(trifluoromethyl)thiazole-5-sulfonamide] | < 6.00 |
| Cc1ccc(NS(=O)(=O)c2cnc(C3(N4CCOCC4)CCC3)s2)c2[nH]cc(C#N)c12 [Compound 32, N-(3-cyano-4-methyl-1H-indol-7-yl)-2-(1-morpholinocyclobutyl)thiazole-5-sulfonamide] | 6.00 to 6.30 |
| Cc1ccc(NS(=O)(=O)c2ccc3nccn3c2)c2[nH]cc(C#N)c12 [Compound 41] | 6.00 to 6.30 |
| O=S(=O)(Nc1ccc(Cl)c2c(Cl)c[nH]c12)c1cnc(C(F)(F)F)s1 [Compound 11, N-(3,4-dichloro-1H-indol-7-yl)-2-(trifluoromethyl)thiazole-5-sulfonamide] | < 6.00 |
| Cc1ccc(NS(=O)(=O)c2cnc(NC(=O)OC(C)(C)C)s2)c2[nH]cc(C#N)c12 [Compound 18, tert-butyl (5-(N-(3-cyano-4-methyl-1H-indol-7-yl)sulfamoyl)thiazol-2-yl)carbamate] | 6.00 to 6.30 |
| Cc1ccc(NS(=O)(=O)c2cscn2)c2[nH]cc(C#N)c12 [Compound 85] | 6.00 to 6.30 |
| CC(=O)N1CCC(c2ncc(S(=O)(=O)Nc3ccc(C)c4c(C#N)c[nH]c34)s2)CC1 [Compound 29, 2-(1-acetyl-4-piperidyl)-N-(3-cyano-4-methyl-1H-indol-7-yl)thiazole-5-sulfonamide] | < 6.00 |
| Cc1ccc(NS(=O)(=O)c2cc3n(n2)CCC3)c2[nH]cc(C#N)c12 [Compound 44] | 6.00 to 6.30 |
| Cc1ccc(NS(=O)(=O)c2cnc(C(C)(C)O)s2)c2[nH]cc(C#N)c12 [Compound 35, N-(3-cyano-4-methyl-1H-indol-7-yl)-2-(1-hydroxy-1-methyl-ethyl)thiazole-5-sulfonamide] | 6.00 to 6.30 |

Second part, the compound after the results:

| pIC50 | SMILES |
| --- | --- |
| 6.00 to 6.30 | Cc1ccc(NS(=O)(=O)c2cnc(N)s2)c2[nH]cc(C#N)c12 [Compound 19, 2-amino-N-(3-cyano-4-methyl-1H-indol-7-yl)thiazole-5-sulfonamide] |
| > 6.30 | Cc1ccc(NS(=O)(=O)c2cnc(N(C)S(C)(=O)=O)s2)c2[nH]cc(C#N)c12 [Compound 91] |
| 6.00 to 6.30 | CC(=O)Nc1ncc(S(=O)(=O)Nc2ccc(C)c3c(C#N)c[nH]c23)s1 [Compound 34, N-(5-(N-(3-cyano-4-methyl-1H-indol-7-yl)sulfamoyl)thiazol-2-yl)acetamide] |
| > 6.30 | COCCc1ncc(S(=O)(=O)Nc2ccc(C)c3c(C#N)c[nH]c23)s1 [Compound 7, N-(3-cyano-4-methyl-1H-indol-7-yl)-2-(2-methoxyethyl)thiazole-5-sulfonamide] |
| 6.00 to 6.30 | Cc1ccc(NS(=O)(=O)c2cnn3c2CCC3)c2[nH]cc(C#N)c12 [Compound 43] |
| 6.00 to 6.30 | Cc1ccc(NS(=O)(=O)c2cnc(N3CCOCC3)s2)c2[nH]cc(C#N)c12 [Compound 17, N-(3-cyano-4-methyl-1H-indol-7-yl)-2-morpholino-thiazole-5-sulfonamide] |
| 6.00 to 6.30 | Cc1ccc(NS(=O)(=O)c2cnc(CN3CCC(C#N)C3)s2)c2[nH]cc(C#N)c12 (stereo not shown) [Compound 24, N-(3-cyano-4-methyl-1H-indol-7-yl)-2-((3-cyanopyrrolidin-1-yl)methyl)thiazole-5-sulfonamide] |
| 6.00 to 6.30 | O=S(=O)(Nc1ccc(Cl)c2cc[nH]c12)c1cnc(C2CCCNC2)s1 (stereo not shown) [Compound 15, N-(4-chloro-1H-indol-7-yl)-2-(piperidin-3-yl)thiazole-5-sulfonamide] |
| 6.00 to 6.30 | [2H]C([2H])([2H])c1ncc(S(=O)(=O)Nc2ccc(C)c3c(Cl)c[nH]c23)s1 [Compound 92] |
| 6.00 to 6.30 | Cc1ncc(S(=O)(=O)Nc2ccc(Cl)c3c(Cl)c[nH]c23)s1 [Compound 4, N-(3,4-dichloro-1H-indol-7-yl)-2-methyl-thiazole-5-sulfonamide] |
| 6.00 to 6.30 | Cc1ncc(S(=O)(=O)Nc2cccc3c(Cl)c[nH]c23)s1 [Compound 9, N-(3-chloro-1H-indol-7-yl)-2-methylthiazole-5-sulfonamide] |
| 6.00 to 6.30 | O=S(=O)(Nc1ccc(Cl)c2c(Cl)c[nH]c12)c1cnc(C2(N3CCOCC3)CCC2)s1 [Compound 75] |
| 6.00 to 6.30 | O=S(=O)(Nc1ccc(Cl)c2c(Cl)c[nH]c12)c1cscn1 [Compound 84] |
| > 6.30 | Cc1ncc(S(=O)(=O)Nc2ccc(Cl)c3c(C#N)c[nH]c23)s1 [Compound 6, N-(4-chloro-3-cyano-1H-indol-7-yl)-2-methyl-thiazole-5-sulfonamide] |
| > 6.30 | COc1ncc(S(=O)(=O)Nc2ccc(C)c3c(C#N)c[nH]c23)s1 [Compound 90] |

Source: patent US20260116874A1, “HETEROAROMATIC INDOLESULFONAMIDES” (SEED Therapeutics, Inc., priority 2023, published 2026)
